According to PubChem BioAssay AID248 (DTP/NCI, 2004):
Toxic doses and inconclusive results are not listed. No stated cut-off is given here; in the data, active means T/C of 150% or more; inactive means T/C below 125%.

System: L1210 leukemia ip in BDF1 mice, survival T/C
Assay: NCI In Vivo Anticancer Drug Screen. Data for tumor model L1210 Leukemia (intraperitoneal) in B6D2F1 (BDF1) mice
Details: endpoint: mean survival time, higher = longer survival
In short: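 Each compound was tested against a transplantable tumor grown in mice. The endpoint was survival, with treated animals benchmarked against vehicle controls as a simple ratio.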

[1] = dose: 100.0 mg/kg/injection, schedule: Q01DX009 (ip), vehicle: Klucel (hydroxypropylcellulose) (HPC)
[2] = dose: 100.0 mg/kg/injection, schedule: Q04DX003 (ip), vehicle: Klucel (hydroxypropylcellulose) (HPC)
[3] = dose: 200.0 mg/kg/injection, schedule: Q01DX009 (ip), vehicle: Klucel (hydroxypropylcellulose) (HPC)
[4] = dose: 200.0 mg/kg/injection, schedule: Q04DX003 (ip), vehicle: Klucel (hydroxypropylcellulose) (HPC)
[5] = dose: 100.0 mg/kg/injection, schedule: Q01DX009 (ip), vehicle: saline with Tween-80
[6] = dose: 200.0 mg/kg/injection, schedule: Q01DX009 (ip), vehicle: saline with Tween-80
[7] = dose: 100.0 mg/kg/injection, schedule: Q04DX002 (ip), vehicle: saline
[8] = dose: 100.0 mg/kg/injection, schedule: Q01DX001 (ip), vehicle: saline
[9] = dose: 200.0 mg/kg/injection, schedule: Q01DX001 (ip), vehicle: saline
[10] = dose: 400.0 mg/kg/injection, schedule: Q04DX003 (ip), vehicle: saline with Tween-80

Measured: T/C

CCCCC(CC)CCC(=O)CC(C)C (centres undefined)
inactive: [1] 91 % of control | [2] 108 % of control | [3] 102 % of control | [4] 98 % of control | dose: 400.0 mg/kg/injection, schedule: Q04DX003 (ip), vehicle: Klucel (hydroxypropylcellulose) (HPC) 98 % of control

CC(=O)CC(OC(=O)c1cc([N+](=O)[O-])cc([N+](=O)[O-])c1)(C(F)(F)F)C(F)(F)F
inactive: dose: 6.25 mg/kg/injection, schedule: Q01DX009 (ip), vehicle: Klucel (hydroxypropylcellulose) (HPC) 93 % of control | dose: 12.5 mg/kg/injection, schedule: Q01DX009 (ip), vehicle: Klucel (hydroxypropylcellulose) (HPC) 88 % of control | dose: 25.0 mg/kg/injection, schedule: Q01DX009 (ip), vehicle: Klucel (hydroxypropylcellulose) (HPC) 88 % of control

CC(=O)c1ccc(Cc2ccc(C(C)=O)s2)s1
inactive: dose: 50.0 mg/kg/injection, schedule: Q01DX009 (ip), vehicle: saline with Tween-80 86 % of control | [5] 93 % of control | [6] 89 % of control

CC(C)(C)C1CCC(=O)CC1
inactive: dose: 12.5 mg/kg/injection, schedule: Q04DX002 (ip), vehicle: saline 109 % of control | dose: 25.0 mg/kg/injection, schedule: Q04DX002 (ip), vehicle: saline 106 % of control | dose: 50.0 mg/kg/injection, schedule: Q04DX002 (ip), vehicle: saline 95 % of control | [7] 99 % of control

Cc1ccc(N=Nc2ccc(C)cc2NC(=O)Nc2cc(Cl)ccc2C)cc1
inactive: [1] 93 % of control | [3] 94 % of control

O=C(COc1ccc(Cl)c(Cl)c1)Nc1ccc[n+](Cc2c(Cl)cccc2S(=O)(=O)F)c1
inactive: [8] 88 % of control | [9] 101 % of control

CSc1ncc(C(N)=O)c(N)n1
inactive: dose: 222.0 mg/kg/injection, schedule: Q01DX Z (ip), vehicle: saline 102 % of control | dose: 333.0 mg/kg/injection, schedule: Q01DX Z (ip), vehicle: saline 89 % of control | dose: 500.0 mg/kg/injection, schedule: Q01DX Z (ip), vehicle: saline 95 % of control

COC1CC(N=[N+]=[N-])C(OS(C)(=O)=O)C(C)O1 (centres undefined)
inactive: dose: 100.0 mg/kg/injection, schedule: Q01DX001 (ip), vehicle: carboxymethylcellulose (CMC) 98 % of control | [5] 109 % of control | dose: 100.0 mg/kg/injection, schedule: Q04DX003 (ip), vehicle: saline with Tween-80 107 % of control | dose: 200.0 mg/kg/injection, schedule: Q01DX001 (ip), vehicle: carboxymethylcellulose (CMC) 106 % of control | [6] 94 % of control | dose: 200.0 mg/kg/injection, schedule: Q04DX003 (ip), vehicle: saline with Tween-80 107 % of control | dose: 400.0 mg/kg/injection, schedule: Q01DX001 (ip), vehicle: carboxymethylcellulose (CMC) 98 % of control | dose: 400.0 mg/kg/injection, schedule: Q01DX009 (ip), vehicle: saline with Tween-80 109 % of control | [10] 108 % of control

CCc1csc(=S)[nH]1
inactive: dose: 50.0 mg/kg/injection, schedule: Q01DX009 (ip), vehicle: Klucel (hydroxypropylcellulose) (HPC) 98 % of control | [1] 93 % of control | [2] 98 % of control | [3] 96 % of control | [4] 98 % of control

C1=C(c2ccccc2)C(c2ccccc2)c2ccccc21 (centres undefined)
inactive: dose: 12.5 mg/kg/injection, schedule: Q04DX002 (ip), vehicle: saline with Tween-80 90 % of control | dose: 25.0 mg/kg/injection, schedule: Q04DX002 (ip), vehicle: saline with Tween-80 98 % of control | dose: 50.0 mg/kg/injection, schedule: Q04DX002 (ip), vehicle: saline with Tween-80 90 % of control | [10] 90 % of control

COc1ccc(C(O)S(=O)(=O)O)cc1 (centres undefined)
inactive: dose: 100.0 mg/kg/injection, schedule: Q04DX003 (ip), vehicle: saline 98 % of control | dose: 200.0 mg/kg/injection, schedule: Q04DX003 (ip), vehicle: saline 100 % of control | dose: 400.0 mg/kg/injection, schedule: Q04DX003 (ip), vehicle: saline 100 % of control

O=[N+]([O-])c1ccc(C2=NCCO2)cc1
inactive: [7] 104 % of control | dose: 200.0 mg/kg/injection, schedule: Q04DX002 (ip), vehicle: saline 114 % of control | dose: 400.0 mg/kg/injection, schedule: Q04DX002 (ip), vehicle: saline 104 % of control

NC(=O)N1CC(c2ccccc2)CCc2ccccc21 (centres undefined)
inactive: [8] 98 % of control | [9] 108 % of control | dose: 400.0 mg/kg/injection, schedule: Q01DX001 (ip), vehicle: saline 102 % of control
